3 compounds from publication PMC10708454, “Mentha spp. Essential Oils: A Potential Toxic Fumigant with Inhibition of Acetylcholinesterase Activity on Reticulitermes dabieshanensis” (Plants, 2023) can be followed below.

Each structure is given as a SMILES string.

For this assay, the target named is T1, acetylcholinesterase (AChE).
T1 construct: gene ace-1; native enzyme in crude whole-worker homogenate (Triton X-100 supernatant), not purified; the docking model is of Coptotermes formosanus, not this enzyme
Briefly: Ellman assay, crude termite homogenate. The format is biochemical, Reticulitermes dabieshanensis. Particulars: acetylthiocholine iodide (10 mM stock), DTNB, Tris-HCl pH 7.8, 30 min, inhibitor in alcohol. Background: DTNB colorimetry detects thiols as they appear.

For the compound `C=CC(C)(O)CCC=C(C)C` (stereo not drawn) [linalool], under “0.5-6.0 μL/mL”, the “IC50 ^a (95% CI ^b)” value is given as 0.136 (0.066–0.218) μL/mL.
Take `CC(C)[C@@H]1CC[C@@H](C)C[C@H]1O` [menthol]: the “IC50 ^a (95% CI ^b)” value (1.0-20.0 μL/mL (value outside tested range)) was 76.790 (36.58–166.367) μL/mL.
For the compound `C=C(C)C1CC=C(C)C(=O)C1` (stereo not drawn) [carvone], the “IC50 ^a (95% CI ^b)” value (0.5-6.0 μL/mL) was 1.922 (1.131–3.308) μL/mL.
